Like-named read-outs stand apart in the source and are kept apart here.
Experiments:
Assay type in all cases: in vivo, human
[1] = system: elderly persons with increased nocturnal diuresis and decreased ADH secretion; conditions: for Diuresis-day: 08-20 h; for Diuresis-night: 20-08 h
Procedure: They had no cardiac or renal disease or diabetes nor were they receiving diuretics. […] Intravenous specimens for the determination of ADH and NAP were frozen at […]. Plasma ADH was measured as arginine vasopressin by radioimmunoassay after extraction with ethanol. The reference range for plasma ADH was 1-5 pmol 1^-1 with an interassay variability of 15.1% at 0.9 pmol 1^-1 and 6.3% at 1.25 pmol 1^-1. Their nocturnal diuresis had decreased during desmopressin treatment on two successive days. After an evaluation of this study the participants were invited to take part in a two-month treatment with desmopressin ([…]®) 40 μg, given as an intranasal aerosol at 20.00 h. […] No changes in their way of life and no restriction in fluid intake was prescribed. The study was carried out after one and two months of treatment and one month after the treatment. […] Mean values of diuresis and micturitions for the 12-hour periods were calculated (Table 2). At these times also a questionnaire with 12 questions about general wellbeing and sleep was filled in (Table 1). The statistical method used a mean value ± standard deviation. The paired numerical data were analyzed with the 2-sided Student's t-test. Non-numerical data were analyzed with the x'-test.

[2] = system: elderly persons with increased nocturnal diuresis; test: Pilot study of desmopressin treatment during 48 hours in elderly persons with increased nocturnal diuresis; conditions: desmopressin treatment on two successive days
Procedure: ADH levels were studied in a group of elderly persons who had increased nocturnal diuresis. The levels generally were very low and a pilot study was done to determine the effect of desmopressin treatment during a period of 48 hours. Their nocturnal diuresis had decreased during desmopressin treatment on two successive days. After an evaluation of this study the participants were invited to take part in a two-month treatment with desmopressin ([…]®) 40 μg, given as an intranasal aerosol at 20.00 h. The tests consisted of 7 men (aged 72±4 years) and 14 women (aged 73±6 years). No changes in their way of life and no restriction in fluid intake was prescribed. The study was carried out after one and two months of treatment and one month after the treatment.

[3] = system: patients 60-74 years of age with increased nocturnal frequency due to nocturnal polyuria
Procedure: This example provides efficacy and safety data for oral desmopressin in the treatment of increased frequency due to nocturnal polyuria in the elderly. The study started with a run-in week to establish baseline. An open dose titration, one week each of 0.1 mg, 0.2 mg and 0.4 mg, was performed and followed by a wash-out of 1-2 weeks. Then followed the double-blind, placebo controlled, cross-over part of the study using the dose selected in the dose titration. Placebo and active treatment were given for 14 days each in a randomized order. […] The diagnosis and main criteria for inclusion was a healthy adult patient between 60-74 years of age suffering from increased nocturnal frequency (≥2 nocturnal voids) and a nocturnal urinary output ≥0.9 ml/min. The desmopressin used for the study was […]®, 0.1 mg and 0.2 mg tablets. […] Study duration, including run-in and wash-out periods, was 9 weeks. The criteria for evaluation were: 1. Efficacy: the change in nocturnal diuresis (ml/min), nocturnal micturition episodes and 24-hour diuresis. 2. Safety: changes from baseline in blood pressure, S-sodium, ankle circumference and bodyweight. Incidence of adverse events. The efficacy endpoints during the double blind part of the study were subjected to statistical analysis with an ANOVA model. Sequence effect was tested with the within mean square in the ANOVA. The residuals obtained were plotted against predicted values, normal plots were also produced. The plots were examined for relationship between variance and mean non-normality. Shapiro-Wilks test was performed to assist in these assessments. The difference in effect is presented in 95% confidence intervals for least square means, placebo versus desmopressin. All tests performed used a significance level of α=5%.

[4] = men, 1 month of 40 μg intranasal
[5] = men, 2 months of 40 μg intranasal
[6] = men, 3 months (one month after treatment)
[7] = women, 1 month of 40 μg intranasal
[8] = women, 2 months of 40 μg intranasal
[9] = women, 3 months (one month after treatment)
[10] = oral tablets, titrated dose 0.1-0.4 mg, 14 days, statistically significant

NC(=O)CC[C@@H]1NC(=O)[C@H](Cc2ccccc2)NC(=O)[C@H](Cc2ccc(O)cc2)NC(=O)CCSSC[C@@H](C(=O)N2CCC[C@H]2C(=O)N[C@H](CCCN=C(N)N)C(=O)NCC(N)=O)NC(=O)[C@H](CC(N)=O)NC1=O [Desmopressin, 1-deamino-8-D-arginine vasopressin]
Number of women who reduced nocturnal diuresis by less than 400 ml ([1]; after one month): 9 women
Number of women who reduced nocturnal diuresis by less than 400 ml ([1]; after two months): 7 women
Total 24-hour diuresis ([1]; during the study): more or less unchanged
Decrease in average diuresis during the night, women versus men ([1]; during the treatment): twice as large in women as in men
Diuresis during the daytime ([1]; during treatment): changed insignificantly
Body weight ([1]; in vivo): did not change
Potassium in serum ([1]; in vivo): did not change
Sodium in serum ([1]; in vivo): did not change
Diuresis-day/night ([1]; men, 0 (before treatment)): 0.67 ± 0.20
No. of micturitions - night ([1]; men, 0 (before treatment)): 4.3 ± 1.2
Diuresis-day ([1]; men, 0 (before treatment), mean ± SD): 511 ± 85 mL
Diuresis-night ([1]; men, 0 (before treatment)): 763 ± 42 mL
Diuresis-day Deviation from initial value % ([1]; men, 1 month): -9%
Diuresis-day/night ([1]; men, 1 month): 0.83 ± 0.28
Diuresis-night Deviation from initial value % ([1]; men, 1 month): -21%
No. of micturitions - night ([1]; men, 1 month): 3.8 ± 1.7
Diuresis-day [1, 4]: 465 ± 72 mL
Diuresis-night [1, 4]: 603 ± 178 mL
Diuresis-day Deviation from initial value % ([1]; men, 2 months): 2%
Diuresis-day/night ([1]; men, 2 months): 0.91 ± 0.29
Diuresis-night Deviation from initial value % ([1]; men, 2 months): -20%
No. of micturitions - night ([1]; men, 2 months): 4.5 ± 2.0
Diuresis-day [1, 5]: 524 ± 117 mL
Diuresis-night [1, 5]: 612 ± 174 mL
Diuresis-day Deviation from initial value % [1, 6]: -14%
Diuresis-day/night [1, 6]: 0.66 ± 0.26
Diuresis-night Deviation from initial value % [1, 6]: -6%
No. of micturitions - night [1, 6]: 4.1 ± 1.6
Diuresis-day [1, 6]: 441 ± 68 mL
Diuresis-night [1, 6]: 717 ± 168 mL
Reduction of nocturnal diuresis (all the men) ([1]; men, after both one and two months): less than 400 ml
Decrease in nocturnal diuresis from the initial value ([1]; men, after one month): 21%
Decrease in nocturnal diuresis from the initial value ([1]; men, after two months): 20%
Daytime diuresis ([1]; one month after treatment, both men and women): there remained a reduction
Number of nocturnal micturitions ([1]; women versus men): women were affected most positively
Diuresis-day/night ([1]; women, 0 (before treatment)): 0.84 ± 0.40
Diuresis-day ([1]; women, 0 (before treatment)): 699 ± 368 mL
Diuresis-night ([1]; women, 0 (before treatment)): 892 ± 361 mL
Diuresis-day Deviation from initial value % ([1]; women, 1 month): 6%
Diuresis-day/night ([1]; women, 1 month): 1.46 ± 0.87
Diuresis-night Deviation from initial value % ([1]; women, 1 month): -36%
Diuresis-day [1, 7]: 746 ± 368 mL
Diuresis-night [1, 7]: 570 ± 172 mL
Diuresis-day Deviation from initial value % ([1]; women, 2 months): -4%
Diuresis-day/night ([1]; women, 2 months): 1.14 ± 0.36
Diuresis-night Deviation from initial value % ([1]; women, 2 months): -34%
Diuresis-day [1, 8]: 673 ± 257 mL
Diuresis-night [1, 8]: 592 mL
Diuresis-day Deviation from initial value % [1, 9]: -14%
Diuresis-day/night [1, 9]: 0.89 ± 0.36
Diuresis-night Deviation from initial value % [1, 9]: -17%
Diuresis-day [1, 9]: 587 ± 173 mL
Diuresis-night [1, 9]: 739 ± 260 mL
Decrease in nocturnal diuresis from the initial value ([1]; women, after one month): 36%
Decrease in nocturnal diuresis from the initial value ([1]; women, after two months): 34%
Less nocturnal diuresis than initial value ([1]; women, one month after the last day of treatment): 17%
Nocturnal diuresis [2]: decreased
Tolerability ([3]; in vivo, po): well tolerated
Duration of sleep between voids compared to placebo ([3]; oral tablets, titrated dose 0.1-0.4 mg, 14 days): significantly longer
Nocturnal diuresis compared to placebo [3, 10]: lower
Nocturnal voids compared to placebo [3, 10]: fewer
Nocturnal symptoms ([3]; oral tablets, elderly population): significantly decreases

From patent US5985835A, “Desmopressin for nocturia, incontinence and enuresis” (priority 1997, dated 1999)
